Reference: PubChem BioAssay AID330 (DTP/NCI, 2004)
Values joined by “and” are separate entries in the source; they are usually repeats but may differ in a detail not shown here. Identical values can stand only once. Toxic doses and inconclusive results are not listed.

Test system: P388 leukemia ip, CD2F1 mice, survival T/C
Assay: NCI In Vivo Anticancer Drug Screen. Data for tumor model P388 Leukemia (intraperitoneal) in CD2F1 (CDF1) mice
Details: endpoint: median survival time, higher = longer survival
Procedure, shortened: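 Mice carrying the transplanted tumor received test compound or vehicle. Survival was recorded in each group, and the value is the treated-group measurement divided by that of the vehicle-treated control group.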

[1] = dose: 50.0 mg/kg/injection, schedule: Q01DX005 (ip), vehicle: Klucel (hydroxypropylcellulose) (HPC)
[2] = dose: 100.0 mg/kg/injection, schedule: Q01DX005 (ip), vehicle: Klucel (hydroxypropylcellulose) (HPC)
[3] = dose: 12.5 mg/kg/injection, schedule: Q01DX009 (ip), vehicle: saline with Tween-80
[4] = dose: 25.0 mg/kg/injection, schedule: Q01DX009 (ip), vehicle: saline with Tween-80
[5] = dose: 50.0 mg/kg/injection, schedule: Q01DX009 (ip), vehicle: saline with Tween-80

For `C=C1C(=O)OC2/C=C(\COC(C)=O)CCC(OC(C)=O)C3=CC(OC3=O)C12` (configuration not stated), the T/C (dose: 1.87 mg/kg/injection, schedule: Q01DX009 (ip), vehicle: Klucel (hydroxypropylcellulose) (HPC)) was 95 % of control, the T/C (dose: 3.75 mg/kg/injection, schedule: Q01DX009 (ip), vehicle: Klucel (hydroxypropylcellulose) (HPC)) was 102 % of control and the T/C (dose: 7.5 mg/kg/injection, schedule: Q01DX009 (ip), vehicle: Klucel (hydroxypropylcellulose) (HPC)) was 96 % of control. For the same molecule, the T/C (dose: 15.0 mg/kg/injection, schedule: Q01DX009 (ip), vehicle: Klucel (hydroxypropylcellulose) (HPC)) was 117 % of control.
`O=Nc1c(O)n(-c2ccccc2)c(=O)[nH]c1=O` was tested, and the T/C (dose: 50.0 mg/kg/injection, schedule: Q04DX002 (ip), vehicle: suspension in saline) was 100 % of control, the T/C (dose: 100.0 mg/kg/injection, schedule: Q04DX002 (ip), vehicle: suspension in saline) was 101 % of control and the T/C (dose: 200.0 mg/kg/injection, schedule: Q04DX002 (ip), vehicle: suspension in saline) was 101 % of control.
With `CCC(=O)Nc1c(O)c(Br)c(NC(=O)CC)c(O)c1Br` the T/C (dose: 60.0 mg/kg/injection, schedule: Q01DX005 (ip), vehicle: saline) was 104 % of control, the T/C (dose: 120.0 mg/kg/injection, schedule: Q01DX005 (ip), vehicle: saline) was 100 % of control and the T/C (dose: 240.0 mg/kg/injection, schedule: Q01DX005 (ip), vehicle: saline) was 105 % of control.
For `CCOC(=O)C1=C(c2ccccc2)OC(N)=C(C#N)C1c1ccc(C)cc1` (configuration not stated), the T/C [1] was 113 % of control, the T/C [2] was 101 % of control and the T/C (dose: 200.0 mg/kg/injection, schedule: Q01DX005 (ip), vehicle: Klucel (hydroxypropylcellulose) (HPC)) was 103 % of control.
With `Cc1c(O)ccc2c1OCC(c1ccc(Cl)cc1)C2` (configuration not stated) the T/C (dose: 60.0 mg/kg/injection, schedule: Q01DX005 (ip), vehicle: saline with Tween-80) was 104 % of control, the T/C (dose: 120.0 mg/kg/injection, schedule: Q01DX005 (ip), vehicle: saline with Tween-80) was 91 % of control and the T/C (dose: 240.0 mg/kg/injection, schedule: Q01DX005 (ip), vehicle: saline with Tween-80) was 92 % of control.
For `O=C1C[C@@H]2OCC=C3C[N+]4([O-])CC[C@]56c7ccccc7N1[C@H]5[C@H]2[C@H]3C[C@@H]64` (some centres not stated), the T/C (dose: 12.5 mg/kg/injection, schedule: Q01DX005 (ip), vehicle: saline) was 95 % of control and the T/C (dose: 25.0 mg/kg/injection, schedule: Q01DX005 (ip), vehicle: saline) was 88 % of control.
For `O=C(O)CC(C(=O)O)S(=O)CP(=O)(O)O` (configuration not stated), the T/C (dose: 50.0 mg/kg/injection, schedule: Q01DX005 (ip), vehicle: saline) was 95 % of control, the T/C (dose: 100.0 mg/kg/injection, schedule: Q01DX005 (ip), vehicle: saline) was 103 % of control and the T/C (dose: 200.0 mg/kg/injection, schedule: Q01DX005 (ip), vehicle: saline) was 110 % of control.
In the case of `Cc1ccc(/[N+]([O-])=N/N2C(=O)c3ccccc3C2=O)cc1`, the T/C (dose: 25.0 mg/kg/injection, schedule: Q01DX005 (ip), vehicle: Klucel (hydroxypropylcellulose) (HPC)) was 101 % of control, the T/C [1] was 106 % of control and the T/C [2] was 108 % of control.
In the case of `O=C(CBr)C(=O)OCc1ccccc1`, the T/C (dose: 0.78 mg/kg/injection, schedule: Q01DX009 (ip), vehicle: water) was 100 % of control, the T/C (dose: 1.56 mg/kg/injection, schedule: Q01DX009 (ip), vehicle: water) was 99 % of control and the T/C (dose: 3.13 mg/kg/injection, schedule: Q01DX009 (ip), vehicle: water) was 94 % of control. The T/C (dose: 6.25 mg/kg/injection, schedule: Q01DX009 (ip), vehicle: water) was 102 % of control.
`C=C(C)C12CC(COC(=O)c3ccccc3)C34OC5(OC1C3C1OC1(CO)C(O)C1(O)C(OC(=O)c3ccccc3)C(C)C(C(C)CCCCCCC5O)C14)O2` (configuration not stated) was tested, and the T/C (dose: 0.8 micrograms/kg/injection, schedule: Q01DX009 (ip), vehicle: Klucel (hydroxypropylcellulose) (HPC)) was 104 % of control, the T/C (dose: 1.5 micrograms/kg/injection, schedule: Q01DX009 (ip), vehicle: saline) was 99 % of control and the T/C (dose: 1.6 micrograms/kg/injection, schedule: Q01DX009 (ip), vehicle: Klucel (hydroxypropylcellulose) (HPC)) was 110 % of control. For the same molecule, the T/C (dose: 3.1 micrograms/kg/injection, schedule: Q01DX009 (ip), vehicle: saline) was 99 % of control, the T/C (dose: 3.2 micrograms/kg/injection, schedule: Q01DX009 (ip), vehicle: Klucel (hydroxypropylcellulose) (HPC)) was 102 % of control and the T/C (dose: 6.2 micrograms/kg/injection, schedule: Q01DX009 (ip), vehicle: saline) was 96 % of control. The T/C (dose: 6.3 micrograms/kg/injection, schedule: Q01DX009 (ip), vehicle: Klucel (hydroxypropylcellulose) (HPC)) was 98 % of control, the T/C (dose: 12.5 micrograms/kg/injection, schedule: Q01DX009 (ip), vehicle: Klucel (hydroxypropylcellulose) (HPC)) was 112 % of control and the T/C (dose: 12.5 micrograms/kg/injection, schedule: Q01DX009 (ip), vehicle: saline with Tween-80) was 89 % of control. For the same molecule, the T/C (dose: 12.5 micrograms/kg/injection, schedule: Q01DX009 (ip), vehicle: saline) was 124 % of control, the T/C (dose: 25.0 micrograms/kg/injection, schedule: Q01DX009 (ip), vehicle: Klucel (hydroxypropylcellulose) (HPC)) was 102 % of control and the T/C (dose: 25.0 micrograms/kg/injection, schedule: Q01DX009 (ip), vehicle: saline with Tween-80) was 96 % of control. For the same molecule, the T/C (dose: 25.0 micrograms/kg/injection, schedule: Q01DX009 (ip), vehicle: saline) was 150 % of control, the T/C (dose: 50.0 micrograms/kg/injection, schedule: Q01DX009 (ip), vehicle: Klucel (hydroxypropylcellulose) (HPC)) was 101 % of control and the T/C (dose: 50.0 micrograms/kg/injection, schedule: Q01DX009 (ip), vehicle: saline) was 157 % of control and 159 % of control. For the same molecule, the T/C (dose: 100.0 micrograms/kg/injection, schedule: Q01DX009 (ip), vehicle: Klucel (hydroxypropylcellulose) (HPC)) was 104 % of control and the T/C (dose: 200.0 micrograms/kg/injection, schedule: Q01DX009 (ip), vehicle: Klucel (hydroxypropylcellulose) (HPC)) was 110 % of control.
For `CCOC1=CCCCC1`, the T/C (dose: 100.0 mg/kg/injection, schedule: Q04DX003 (ip), vehicle: alcohol) was 100 % of control, the T/C (dose: 200.0 mg/kg/injection, schedule: Q04DX003 (ip), vehicle: alcohol) was 100 % of control and the T/C (dose: 400.0 mg/kg/injection, schedule: Q04DX003 (ip), vehicle: alcohol) was 104 % of control.
`CC(=O)c1ccc2ccccc2n1` was tested, and the T/C (dose: 25.0 mg/kg/injection, schedule: Q01DX009 (ip), vehicle: other) was 102 % of control, the T/C (dose: 50.0 mg/kg/injection, schedule: Q01DX009 (ip), vehicle: other) was 105 % of control and the T/C (dose: 100.0 mg/kg/injection, schedule: Q01DX009 (ip), vehicle: other) was 111 % of control. For the same molecule, the T/C (dose: 200.0 mg/kg/injection, schedule: Q01DX009 (ip), vehicle: other) was 114 % of control and the T/C (dose: 400.0 mg/kg/injection, schedule: Q01DX009 (ip), vehicle: other) was 114 % of control.
For `CS(=O)(=O)c1nnc(-c2cccc[n+]2[O-])s1`, the T/C [1] was 116 % of control and the T/C [2] was 114 % of control.
`Nc1cc(Cl)c2[nH]cnc2n1` was tested, and the T/C (dose: 25.0 mg/kg/injection, schedule: Q01DX005 (ip), vehicle: distilled water + Tween-80) was 102 % of control, the T/C (dose: 50.0 mg/kg/injection, schedule: Q01DX005 (ip), vehicle: distilled water + Tween-80) was 111 % of control and the T/C (dose: 200.0 mg/kg/injection, schedule: Q01DX005 (ip), vehicle: distilled water + Tween-80) was 152 % of control.
`CCCCCC1c2cc(O)ccc2OC1N1CCOCC1` (configuration not stated) was tested, and the T/C [3] was 105 % of control, the T/C [4] was 101 % of control and the T/C [5] was 113 % of control and 120 % of control. The T/C (dose: 100.0 mg/kg/injection, schedule: Q01DX009 (ip), vehicle: saline with Tween-80) was 119 % of control and 124 % of control.
For `O=c1[nH]c(-c2ccncc2)nnc1-c1ccc(Cl)cc1`, the T/C (dose: 100.0 mg/kg/injection, schedule: Q04DX002 (ip), vehicle: saline with Tween-80) was 88 % of control and the T/C (dose: 200.0 mg/kg/injection, schedule: Q04DX002 (ip), vehicle: saline with Tween-80) was 93 % of control.
In the case of `C[n+]1c(-c2cc(C(F)(F)F)cc(C(F)(F)F)c2)c2cc(N)ccc2c2ccc(N)cc21`, the T/C (dose: 2.5 mg/kg/injection, schedule: Q01DX009 (ip), vehicle: water) was 110 % of control, the T/C (dose: 5.0 mg/kg/injection, schedule: Q01DX009 (ip), vehicle: water) was 115 % of control and the T/C (dose: 10.0 mg/kg/injection, schedule: Q01DX009 (ip), vehicle: water) was 118 % of control. For the same molecule, the T/C [3] was 158 % of control, the T/C (dose: 20.0 mg/kg/injection, schedule: Q01DX009 (ip), vehicle: water) was 152 % of control and the T/C [4] was 166 % of control. For the same molecule, the T/C [5] was 196 % of control and the T/C (dose: 80.0 mg/kg/injection, schedule: Q01DX009 (ip), vehicle: water) was 111 % of control.
In the case of `O=C1c2ccccc2CC12OC2c1ccccc1` (configuration not stated), the T/C (dose: 25.0 mg/kg/injection, schedule: Q01DX009 (ip), vehicle: Klucel (hydroxypropylcellulose) (HPC)) was 96 % of control, the T/C (dose: 50.0 mg/kg/injection, schedule: Q01DX009 (ip), vehicle: Klucel (hydroxypropylcellulose) (HPC)) was 92 % of control and the T/C (dose: 100.0 mg/kg/injection, schedule: Q01DX009 (ip), vehicle: Klucel (hydroxypropylcellulose) (HPC)) was 92 % of control. For the same molecule, the T/C (dose: 200.0 mg/kg/injection, schedule: Q01DX009 (ip), vehicle: Klucel (hydroxypropylcellulose) (HPC)) was 89 % of control and the T/C (dose: 400.0 mg/kg/injection, schedule: Q01DX009 (ip), vehicle: Klucel (hydroxypropylcellulose) (HPC)) was 92 % of control.
